Results: PubChem BioAssay (NCI)
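Protocol summary: plate cells (96-well), add compound at 5 concentrations, incubate 48 h, interpolate endpoints linearly. At the GI50, growth is halved. At the TGI there is no net growth.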

How the values were obtained:
Experiment in all cases: NCI-60 cell line screen, 48 h; in the data active means GI50 below about 0.43 µM; inactive means the rest
PC-3 prostate = tested on: PC-3 prostate
A549 NSCLC = tested on: A549 NSCLC
MCF7 breast = tested on: MCF7 breast
SF-539 CNS = tested on: SF-539 CNS
RPMI-8226 leukemia = tested on: RPMI-8226 leukemia
HL-60(TB) leukemia = tested on: HL-60(TB) leukemia
NCI/ADR-RES ovarian = tested on: NCI/ADR-RES ovarian
OVCAR-5 ovarian = tested on: OVCAR-5 ovarian
NCI-H23 lung = tested on: NCI-H23 lung
LOX IMVI melanoma = tested on: LOX IMVI melanoma
U251 CNS = tested on: U251 CNS
IGROV1 ovarian = tested on: IGROV1 ovarian
MALME-3M melanoma = tested on: MALME-3M melanoma
CAKI-1 renal = tested on: CAKI-1 renal
UO-31 renal = tested on: UO-31 renal
HCT-15 colon = tested on: HCT-15 colon
M14 melanoma = tested on: M14 melanoma
RXF 393 renal = tested on: RXF 393 renal
SNB-75 CNS = tested on: SNB-75 CNS
MDA-N = tested on: MDA-N
MDA-MB-435 = tested on: MDA-MB-435
SK-OV-3 ovarian = tested on: SK-OV-3 ovarian
SR leukemia = tested on: SR leukemia
DU-145 prostate = tested on: DU-145 prostate
OVCAR-8 ovarian = tested on: OVCAR-8 ovarian
EKVX NSCLC = tested on: EKVX NSCLC
KM12 colon = tested on: KM12 colon
SW-620 colon = tested on: SW-620 colon
UACC-62 melanoma = tested on: UACC-62 melanoma
OVCAR-4 ovarian = tested on: OVCAR-4 ovarian
NCI-H522 lung = tested on: NCI-H522 lung
NCI-H460 lung = tested on: NCI-H460 lung
A498 renal = tested on: A498 renal
TK-10 renal = tested on: TK-10 renal
OVCAR-3 ovarian = tested on: OVCAR-3 ovarian
SN12C renal = tested on: SN12C renal
SK-MEL-2 melanoma = tested on: SK-MEL-2 melanoma
K-562 leukemia = tested on: K-562 leukemia
MDA-MB-231 breast = tested on: MDA-MB-231 breast
CCRF-CEM leukemia = tested on: CCRF-CEM leukemia
UACC-257 melanoma = tested on: UACC-257 melanoma
MOLT-4 leukemia = tested on: MOLT-4 leukemia
SK-MEL-5 melanoma = tested on: SK-MEL-5 melanoma
SF-295 CNS = tested on: SF-295 CNS
HCC-2998 colon = tested on: HCC-2998 colon
COLO 205 colon = tested on: COLO 205 colon
NCI-H226 lung = tested on: NCI-H226 lung
HCT-116 colon = tested on: HCT-116 colon
786-0 renal = tested on: 786-0 renal
HOP-92 NSCLC = tested on: HOP-92 NSCLC
ACHN renal = tested on: ACHN renal
T-47D breast = tested on: T-47D breast
BT-549 breast = tested on: BT-549 breast
SF-268 CNS = tested on: SF-268 CNS
HT29 colon = tested on: HT29 colon
SNB-19 CNS = tested on: SNB-19 CNS
HOP-62 NSCLC = tested on: HOP-62 NSCLC
SK-MEL-28 melanoma = tested on: SK-MEL-28 melanoma
HS 578T breast = tested on: HS 578T breast

O=CC1=C(C(=O)OC(c2ccccc2)c2ccccc2)N2C(=O)[C@@H](NC(=O)Cc3cccs3)[C@H]2SC1
> 100 µM: TGI (PC-3 prostate) | TGI (A549 NSCLC) | TGI (MCF7 breast) | TGI (SF-539 CNS) | TGI (RPMI-8226 leukemia) | TGI (HL-60(TB) leukemia) | TGI (NCI/ADR-RES ovarian) | TGI (OVCAR-5 ovarian) | TGI (NCI-H23 lung) | TGI (LOX IMVI melanoma) | TGI (U251 CNS) | TGI (IGROV1 ovarian) | TGI (MALME-3M melanoma) | TGI (CAKI-1 renal) | TGI (UO-31 renal) | TGI (HCT-15 colon) | TGI (M14 melanoma) | TGI (RXF 393 renal) | TGI (SNB-75 CNS) | TGI (MDA-N) | TGI (MDA-MB-435) | TGI (SK-OV-3 ovarian) | TGI (SR leukemia) | TGI (DU-145 prostate) | TGI (OVCAR-8 ovarian) | TGI (EKVX NSCLC) | TGI (KM12 colon) | TGI (SW-620 colon) | TGI (UACC-62 melanoma) | TGI (OVCAR-4 ovarian) | TGI (NCI-H522 lung) | TGI (NCI-H460 lung) | TGI (A498 renal) | TGI (TK-10 renal) | TGI (OVCAR-3 ovarian) | TGI (SN12C renal) | TGI (SK-MEL-2 melanoma) | TGI (K-562 leukemia) | TGI (MDA-MB-231 breast) | TGI (CCRF-CEM leukemia) | TGI (UACC-257 melanoma) | TGI (MOLT-4 leukemia) | TGI (SK-MEL-5 melanoma) | TGI (SF-295 CNS) | TGI (HCC-2998 colon) | TGI (COLO 205 colon) | TGI (NCI-H226 lung) | TGI (HCT-116 colon) | TGI (786-0 renal) | TGI (HOP-92 NSCLC) | TGI (ACHN renal)

CCOC(=O)/C=C1/SC(N2CCCCC2)C(=O)N1CC (stereo not given)
> 100 µM: TGI (PC-3 prostate) | TGI (A549 NSCLC) | TGI (MCF7 breast) | TGI (T-47D breast) | TGI (SF-539 CNS) | TGI (RPMI-8226 leukemia) | TGI (HL-60(TB) leukemia) | TGI (NCI/ADR-RES ovarian) | TGI (OVCAR-5 ovarian) | TGI (NCI-H23 lung) | TGI (LOX IMVI melanoma) | TGI (U251 CNS) | TGI (BT-549 breast) | TGI (IGROV1 ovarian) | TGI (MALME-3M melanoma) | TGI (CAKI-1 renal) | TGI (UO-31 renal) | TGI (HCT-15 colon) | TGI (M14 melanoma) | TGI (RXF 393 renal) | TGI (SNB-75 CNS) | TGI (MDA-MB-435) | TGI (SK-OV-3 ovarian) | TGI (SR leukemia) | TGI (DU-145 prostate) | TGI (OVCAR-8 ovarian) | TGI (EKVX NSCLC) | TGI (KM12 colon) | TGI (SW-620 colon) | TGI (SF-268 CNS) | TGI (UACC-62 melanoma) | TGI (OVCAR-4 ovarian) | TGI (NCI-H522 lung) | TGI (HT29 colon) | TGI (NCI-H460 lung) | TGI (A498 renal) | TGI (TK-10 renal) | TGI (SNB-19 CNS) | TGI (OVCAR-3 ovarian) | TGI (HOP-62 NSCLC) | TGI (SN12C renal) | TGI (SK-MEL-2 melanoma) | TGI (SK-MEL-28 melanoma) | TGI (HS 578T breast) | TGI (K-562 leukemia) | TGI (MDA-MB-231 breast) | TGI (CCRF-CEM leukemia) | TGI (UACC-257 melanoma) | TGI (MOLT-4 leukemia) | TGI (SK-MEL-5 melanoma) | TGI (SF-295 CNS) | TGI (HCC-2998 colon) | TGI (COLO 205 colon) | TGI (NCI-H226 lung) | TGI (HCT-116 colon) | TGI (786-0 renal) | TGI (HOP-92 NSCLC) | TGI (ACHN renal)
inactive: GI50 (PC-3 prostate) > 100 µM | GI50 (A549 NSCLC) > 100 µM | GI50 (MCF7 breast) > 100 µM | GI50 (T-47D breast) > 100 µM | GI50 (SF-539 CNS) > 100 µM | GI50 (RPMI-8226 leukemia) > 100 µM | GI50 (HL-60(TB) leukemia) > 100 µM | GI50 (NCI/ADR-RES ovarian) > 100 µM | GI50 (OVCAR-5 ovarian) > 100 µM | GI50 (NCI-H23 lung) > 100 µM | GI50 (LOX IMVI melanoma) > 100 µM | GI50 (U251 CNS) > 100 µM | GI50 (BT-549 breast) > 100 µM | GI50 (IGROV1 ovarian) > 100 µM | GI50 (MALME-3M melanoma) > 100 µM | GI50 (CAKI-1 renal) > 100 µM | GI50 (UO-31 renal) > 100 µM | GI50 (HCT-15 colon) > 100 µM | GI50 (M14 melanoma) > 100 µM | GI50 (RXF 393 renal) > 100 µM | GI50 (SNB-75 CNS) > 100 µM | GI50 (MDA-MB-435) > 100 µM | GI50 (SK-OV-3 ovarian) > 100 µM | GI50 (SR leukemia) > 100 µM | GI50 (DU-145 prostate) > 100 µM | GI50 (OVCAR-8 ovarian) > 100 µM | GI50 (EKVX NSCLC) > 100 µM | GI50 (KM12 colon) > 100 µM | GI50 (SW-620 colon) > 100 µM | GI50 (SF-268 CNS) > 100 µM | GI50 (UACC-62 melanoma) > 100 µM | GI50 (OVCAR-4 ovarian) > 100 µM | GI50 (NCI-H522 lung) > 100 µM | GI50 (HT29 colon) > 100 µM | GI50 (NCI-H460 lung) > 100 µM | GI50 (A498 renal) > 100 µM | GI50 (TK-10 renal) > 100 µM | GI50 (SNB-19 CNS) > 100 µM | GI50 (OVCAR-3 ovarian) > 100 µM | GI50 (HOP-62 NSCLC) > 100 µM | GI50 (SN12C renal) > 100 µM | GI50 (SK-MEL-2 melanoma) > 100 µM | GI50 (SK-MEL-28 melanoma) > 100 µM | GI50 (HS 578T breast) > 100 µM | GI50 (K-562 leukemia) > 100 µM | GI50 (MDA-MB-231 breast) > 100 µM | GI50 (CCRF-CEM leukemia) > 100 µM | GI50 (UACC-257 melanoma) > 100 µM | GI50 (MOLT-4 leukemia) > 100 µM | GI50 (SK-MEL-5 melanoma) > 100 µM | GI50 (SF-295 CNS) > 100 µM | GI50 (HCC-2998 colon) > 100 µM | GI50 (COLO 205 colon) > 100 µM | GI50 (NCI-H226 lung) > 100 µM | GI50 (HCT-116 colon) > 100 µM | GI50 (786-0 renal) > 100 µM | GI50 (HOP-92 NSCLC) > 100 µM | GI50 (ACHN renal) > 100 µM

COc1ccc2c(ccc3c(C(=O)NCCN(C)CCNC(=O)c4cn(C)c5c4ccc4cc(OC)ccc45)cn(C)c32)c1
2.7 µM: TGI (HT29 colon)
> 100 µM: TGI (U251 CNS) | TGI (A498 renal)
2.79 µM: TGI (HCC-2998 colon)
3.32 µM: TGI (DU-145 prostate)
3 µM: TGI (M14 melanoma)
2.52 µM: TGI (HCT-15 colon)
3.02 µM: TGI (KM12 colon)
2.82 µM: TGI (SN12C renal)
2.84 µM: TGI (PC-3 prostate)
2.91 µM: TGI (MDA-N)
2.75 µM: TGI (HOP-62 NSCLC)
2.83 µM: TGI (OVCAR-3 ovarian)
